13 compounds from PubChem BioAssay (NCI) can be followed below.

Test in all cases: NCI tumour cell line growth inhibition, 48 h
Experiment [1] relates to SW-620 colon.
Experiment [2] deals with SR leukemia.
The test system of experiment [3] is MDA-MB-231 breast.
For experiment [4], the system named is SF-539 CNS.
Experiment [5] deals with RXF 393 renal.
Experiment [6] concerns NCI-H460 lung.
The test system of experiment [7] is HOP-92 NSCLC.
Experiment [8] deals with CAKI-1 renal.
The test system of experiment [9] is HOP-62 NSCLC.
Experiment [10] has as its system NCI-H522 lung.

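Briefly, cells in 96-well plates were exposed to five compound concentrations for 48 h, and endpoints were estimated by linear interpolation. GI50 marks 50% less growth. Definition used: TGI = concentration required for complete inhibition of growth.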

On to `Cc1ccc(NC(=O)/C(Cc2cc(=O)oc3cc(O)ccc23)=N\NC(C)(C)C)cc1C`, for which the TGI in [1], in [2], in experiment [3], in experiment [4], in experiment [5] and in [6] was over 100 µM each time. For the same compound, the TGI in experiment [7] and in [8] was over 100 µM in each case.
On to `CC(=O)/C=C/C1=C(c2csc3ccccc23)c2ccccc2CC1`, for which the GI50 in experiment [1] is 28 µM; in experiment [2], 16 µM; in [9] it was 44.5 µM; in [3], 22.8 µM; in experiment [10], 14.2 µM; in experiment [4], 26.4 µM. Also, the values for the GI50 in [5], in experiment [7] and in [8] were 20.2 µM, 19.5 µM and 32.4 µM, respectively. In addition, the TGI in experiment [1] was over 100 µM; in experiment [2], 64.6 µM; in experiment [9], over 100 µM; in [3] it was 69.5 µM; in experiment [10] it was 67.9 µM; in experiment [4], 71 µM. For the same compound, the TGI in [5] is 46.5 µM; in experiment [7] it was 65.3 µM; in [8] it was over 100 µM.
With `CO/N=C(\C([O-])=N\[n+]1cnn(CC(=O)OC(C)(C)C)c1)c1csc(NC(c2ccccc2)(c2ccccc2)c2ccccc2)n1`, the TGI in [1], in experiment [2], in experiment [9], in experiment [10], in experiment [4] and in experiment [5] was over 10 µM in each case. The TGI in experiment [6], in [7] and in experiment [8] was over 10 µM in each case.
Regarding `Cc1c(Cl)cccc1NC(=O)/C=C/c1ccccc1`, the TGI is over 100 µM in experiment [1]; over 100 µM in [2]; over 100 µM in experiment [9]; 96.3 µM in experiment [3]; over 100 µM in experiment [10]; over 100 µM in experiment [4]. Further, the TGI is over 100 µM in experiment [6], over 100 µM in experiment [7] and 73.3 µM in [8].
For `CCn1c2c(c3ccccc31)[C@@H](c1ccc(Cl)cc1)CC1C(=O)N(c3ccccc3)C(=O)C21` (stereo not given in full), the TGI in experiment [1] is over 100 µM; in experiment [2] it was 98.8 µM; in experiment [9] it was over 100 µM; in [10] it was over 100 µM; in experiment [4] it was 97.1 µM; in [5], over 100 µM. In addition, the TGI in [6] is over 100 µM; in [7], 90.5 µM; in [8], over 100 µM.
Turning to `O=C(C#Cc1ccccc1)C1=Cc2ccccc2OC1`, the TGI was 9.84 µM in experiment [1]; over 100 µM in experiment [2]; 29.3 µM in experiment [9]; 10.5 µM in [3]; 3.42 µM in [10]; 9.78 µM in experiment [5]. Moreover, the TGI in experiment [6] was found to be 23.7 µM; in experiment [8], 3.47 µM.
Take `NC(=O)c1cccc(OCC(O)CO)c1` (stereo not given): the TGI in experiment [1], in experiment [2], in experiment [9], in experiment [3], in experiment [10] and in [4] was over 100 µM in each case. Also, the TGI in experiment [6] and in experiment [8] was over 100 µM throughout.
On to `CC(=O)NC(CSC1=C2NC(=O)\C=C/C=C/C=C\C(C)C(O)CC(=O)/C(C)=C\CC(O)/C=C/C(C)C(O)C(C)C=C(C)C(=O)c3c(O)c(C)cc(c3C1=O)C2=O)C(=O)O` (stereo not given), for which the TGI is over 100 µM in experiment [1]; over 100 µM in [2]; over 100 µM in experiment [9]; 82.7 µM in [3]; 71.8 µM in experiment [10]; over 100 µM in experiment [4]. Moreover, the TGI in [6], in experiment [7] and in experiment [8] was over 100 µM in each case.
As for `N/N=C(\c1nc2ccc(Cl)cc2[nH]c1=O)C(O)c1ccc(Cl)c(Cl)c1` (stereo not given), the TGI in [1], in [2], in experiment [9], in [10], in [4] and in [5] was over 100 µM throughout. The TGI in experiment [6] and in [7] was over 100 µM in each case.
In the case of `NCCNC(=O)c1cccc2cc3ccccc3nc12`, the TGI in experiment [1] is over 34.1 µM; in experiment [2], 53.8 µM; in [9], 5.02 µM; in experiment [10] it was over 100 µM; in [4], 16.9 µM; in experiment [5] it was 10.2 µM. Further, the TGI in experiment [7] was over 100 µM; in experiment [8], over 23.4 µM.
As to `C1CN(P2(N3CC3)=NP(N3CC3)(N3CC3)=NP(N3CC3)(N3CC3)=N2)CCO1` (stereo not given), the TGI is over 100 µM in [1]; over 47.4 µM in experiment [2]; over 83.4 µM in [9]; over 100 µM in [10]; over 100 µM in experiment [4]; over 100 µM in [5]. Besides, the TGI in experiment [6], in [7] and in experiment [8] was over 100 µM in each case.
Turning to `Clc1ccc2nc(CI)c(CI)nc2c1`, the GI50 in experiment [1] is 2.54 µM; in experiment [2], 1.68 µM; in [9], 28.7 µM; in experiment [3], 2.67 µM; in experiment [4], 2.46 µM; in experiment [5], 4.04 µM. For the same compound, the GI50 in experiment [6] was 10.1 µM; in [7], 3 µM; in [8], 9.56 µM. For the same compound, the TGI in [1] was 6.62 µM; in [2] it was 6.79 µM; in [9], over 56.3 µM; in experiment [3], 7.58 µM; in experiment [4], 6.31 µM; in [5], 9.36 µM. Moreover, the values for the TGI in experiment [6], in experiment [7] and in [8] were 27.1 µM, 8.3 µM and 24.9 µM, respectively.
Consider `CC1(C)C2CCC1C(=O)[C@@]1(C=CC(=O)CC1)C2` (stereo not given in full), for which the TGI in experiment [1], in experiment [2], in experiment [9], in experiment [3], in experiment [10] and in [4] was over 100 µM each time. Further, the TGI in [5], in [6] and in experiment [7] was over 100 µM throughout.
